Laboratory results reported in PMC5025651, “Reprofiled anthelmintics abate hypervirulent stationary-phase Clostridium difficile” (Scientific Reports, 2016).
≈ marks a conversion by molar mass, not a printed value. Where two headings read alike, the source gives them in different places.

Tests used:
[1] = test system: C. difficile isolate 20111163 (ribotype 024); experiment: MIC by broth microdilution; format: cell-based, Clostridium difficile; conditions: Clostridioides difficile
[2] = test system: C. difficile isolate 20121190 (ribotype 126); experiment: MIC by broth microdilution; format: cell-based, Clostridium difficile; conditions: Clostridioides difficile
[3] = test system: C. difficile isolate 20110961 (ribotype A12); experiment: MIC by broth microdilution; format: cell-based, Clostridium difficile; conditions: Clostridioides difficile
[4] = test system: B. longum subsp. longum Strain 44B; experiment: MIC by broth microdilution; format: cell-based; conditions: Bifidobacterium longum
[5] = test system: B. subtilis ATCC 6051; experiment: MIC by broth microdilution; format: cell-based; conditions: Bacillus subtilis, ATCC6051
[6] = test system: B. fragilis Strain CL05T00C42; experiment: MIC by broth microdilution; format: cell-based; conditions: Bacteroides fragilis
[7] = test system: C. difficile strain 4118; experiment: Time-kill kinetics against stationary-phase cultures; format: cell-based, Clostridium difficile; conditions: stationary-phase CD4118
Procedure: At t = 0, 3, 6 and 24 h, sample aliquots were withdrawn from the treated cultures and bacterial viability was scored by plating serial dilutions on BHIS agar plates. The agar plates were incubated in the anaerobic chamber for 20–24 h at 37 °C. Kinetic experiments were performed at least twice.

[8] = test system: C. difficile isolate 20120016 (ribotype 019); experiment: MIC by broth microdilution; format: cell-based, Clostridium difficile; conditions: Clostridioides difficile
[9] = test system: C. difficile isolate 20110960 (ribotype 017); experiment: MIC by broth microdilution; format: cell-based, Clostridium difficile; conditions: Clostridioides difficile
[10] = test system: A. baumannii M2; experiment: MIC by broth microdilution; format: cell-based; conditions: Acinetobacter baumannii, M2
[11] = test system: S. aureus RN4220; experiment: MIC by broth microdilution; format: cell-based; conditions: Staphylococcus aureus, CAMHB, aerobic, duplicate
[12] = test system: B. breve Strain EX336960VC19; experiment: MIC by broth microdilution; format: cell-based; conditions: Bifidobacterium breve
[13] = test system: C. difficile strain 4118; experiment: Minimum bactericidal concentration (MBC), logarithmic- and stationary-phase cells; format: cell-based, Clostridium difficile
Procedure: The procedure for MBC determination was adapted from that of Alam et al.[44]. Briefly, a single overnight colony of C. difficile strain 4118 (streaked onto blood agar plate) was suspended in BHIS and grown to OD600 ~ 0.4–0.5 (logarithmic phase) or for 24 h (stationary phase). In 96-well microtiter plates, cultures were added to two-fold serial dilutions of test compounds in BHIS and incubated for 20–24 h at 37 °C in an anaerobic chamber. […] MBC measurements were performed in duplicate.

[14] = test system: C. difficile isolate 20110986 (ribotype 078); experiment: MIC by broth microdilution; format: cell-based, Clostridium difficile; conditions: Clostridioides difficile
[15] = test system: C. difficile isolate 20110742 (ribotype 002); experiment: MIC by broth microdilution; format: cell-based, Clostridium difficile; conditions: Clostridioides difficile
[16] = test system: C. difficile isolate 20100584 (ribotype 014); experiment: MIC by broth microdilution; format: cell-based, Clostridium difficile; conditions: Clostridioides difficile
[17] = test system: C. difficile strain 4118 (CD4118, ATCC BAA-1870, ribotype 027); experiment: MIC by broth microdilution; format: cell-based, Clostridium difficile
[18] = test system: P. nigrescens ATCC 33563; experiment: MIC by broth microdilution; format: cell-based; conditions: Prevotella nigrescens, ATCC33563
[19] = test system: P. aeruginosa PAO1; experiment: MIC by broth microdilution; format: cell-based; conditions: Pseudomonas aeruginosa, PAO1
[20] = test system: C. difficile isolate 20110740 (ribotype 018); experiment: MIC by broth microdilution; format: cell-based, Clostridium difficile; conditions: Clostridioides difficile
[21] = test system: 16 C. difficile isolates; experiment: MIC by broth microdilution, summary over 16 C. difficile isolates; format: cell-based, Clostridium difficile
[22] = test system: C. difficile isolate 20110869 (ribotype 001_072); experiment: MIC by broth microdilution; format: cell-based, Clostridium difficile; conditions: Clostridioides difficile
[23] = test system: L. reuteri Strain CF48-3A; experiment: MIC by broth microdilution; format: cell-based, Lactobacillus reuteri; conditions: Limosilactobacillus reuteri, 48 h
[24] = test system: C. sporogenes ATCC 15579; experiment: MIC by broth microdilution; format: cell-based; conditions: Clostridium sporogenes, ATCC15579, BHIS, anaerobic, duplicate
[25] = test system: C. clostridioforme ATCC 25537; experiment: MIC by broth microdilution; format: cell-based, Clostridium clostridioforme; conditions: Clostridium, ATCC25537
[26] = test system: C. difficile isolate 20110566 (ribotype 020); experiment: MIC by broth microdilution; format: cell-based, Clostridium difficile; conditions: Clostridioides difficile
[27] = test system: B. thetaiotaomicron ATCC 29148; experiment: microbe, parasite or virus in culture; format: cell-based; conditions: Bacteroides thetaiotaomicron, ATCC29148
[28] = test system: C. difficile isolate 20121412 (ribotype 047); experiment: MIC by broth microdilution; format: cell-based, Clostridium difficile; conditions: Clostridioides difficile
[29] = Hemolysis assay; format: cell-based; conditions: sheep, pH 7.4; 32 µg/mL, 1 h, 37 °C; 1% Triton X-100 positive control; triplicate; read-out: Hemolysis (%)
Method in brief: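 PBS-washed sheep erythrocytes (3% suspension, pH 7.4) were exposed to compound at 32 μg/mL final for 1 h at 37 °C. After centrifugation, supernatant absorbance at 540 nm was read against 1% Triton X-100 (full lysis) and 0.5% DMSO in PBS. Triplicate.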

[30] = test system: C. difficile isolate 20100422 (ribotype 054); experiment: MIC by broth microdilution; format: cell-based, Clostridium difficile; conditions: Clostridioides difficile
[31] = test system: C. difficile isolate 20110973 (ribotype 106); experiment: MIC by broth microdilution; format: cell-based, Clostridium difficile; conditions: Clostridioides difficile
[32] = test system: S. epidermidis 1457; experiment: MIC by broth microdilution; format: cell-based; conditions: Staphylococcus epidermidis, 1457

In the case of `O=C(Nc1ccc(Oc2ccc(Cl)cc2)c(Cl)c1)c1cc(I)cc(I)c1O` [Rafoxanide, rafoxanide], the MIC [1] is reported as 0.06 µg/mL (≈ 0.0958 µM), the MIC [2] is reported as 0.13 µg/mL (≈ 0.208 µM) and the MIC [3] is reported as 0.06 µg/mL (≈ 0.0958 µM). It also gave an MIC [4] of 8 µg/mL (≈ 12.8 µM), an MIC [5] of at most 0.03 µg/mL and an MIC [6] of 32 µg/mL (≈ 51.1 µM). For the same molecule, the “log decrease in the number of CFUs” value ([7]; 4 × MIC, 24 h) was 2.7 log, the “time to eradicate >99.9% of viable cells” value ([7]; 16× MIC (rafoxanide 2 μg/mL, closantel 4 μg/mL, compound 8 1 μg/mL)) was 6 h and the MIC [8] was 0.13 µg/mL (≈ 0.208 µM). For the same molecule, the MIC [9] was 0.06 µg/mL (≈ 0.0958 µM), the MIC [10] was over 32 µg/mL and the MIC [11] was 0.25 µg/mL (≈ 0.399 µM). It also gave an MIC [12] of 16 to 32 µg/mL (≈ 25.6 to 51.1 µM), an MBC ([13]; Clostridioides difficile, 4118, read-out: MBClog) of 0.5 µg/mL (≈ 0.799 µM) and an MBC ([13]; Clostridioides difficile, 4118, read-out: MBCstat) of 1 µg/mL (≈ 1.6 µM). It also gave an MIC [14] of 0.06 to 0.13 µg/mL (≈ 0.0958 to 0.208 µM), an MIC [15] of 0.06 µg/mL (≈ 0.0958 µM) and an MIC [16] of 0.06 µg/mL (≈ 0.0958 µM). For the same molecule, the “MIC C. difficile 4118” value ([17]; BHIS broth, anaerobic, 20–24 h, n = 2) was 0.13 µg/mL (≈ 0.208 µM), the MIC ([17]; Clostridioides difficile, ATCCBAA1870, read-out: MIC C. difficile 4118) was 0.13 µg/mL (≈ 0.208 µM) and the MIC [18] was 8 µg/mL (≈ 12.8 µM). It also gave an MIC [19] of over 32 µg/mL, an MIC [20] of 0.06 µg/mL (≈ 0.0958 µM) and an MIC50 ([21]; Clostridioides difficile) of 0.06 µg/mL (≈ 0.0958 µM). For the same molecule, the MIC90 ([21]; Clostridioides difficile) was 0.13 µg/mL (≈ 0.208 µM), the “MIC Range” value ([21]; range over 16 C. difficile isolates, n = 2) was 0.03 to 0.13 µg/mL and the MIC [22] was 0.13 µg/mL (≈ 0.208 µM). For the same molecule, the MIC [23] was 16 µg/mL (≈ 25.6 µM), the MIC [24] was 1 µg/mL (≈ 1.6 µM) and the MIC [25] was 1 µg/mL (≈ 1.6 µM). It also gave an MIC [26] of 0.06 µg/mL (≈ 0.0958 µM), an MIC [27] of over 32 µg/mL and an MIC [28] of 0.03 µg/mL (≈ 0.0479 µM). For the same molecule, the hemolysis at 1 h, 32 µg/mL [29] was under 1%, the MIC [30] was 0.13 µg/mL (≈ 0.208 µM) and the MIC [31] was 0.06 µg/mL (≈ 0.0958 µM). For the same molecule, the MIC [32] was at most 0.03 µg/mL.
